Counter-ions that a name gives are not always drawn.
Tests used:
[1] = Dynamic moisture sorption (DMS) assessment; format: physicochemical; conditions: 25° C.
Method: Dynamic moisture sorption (DMS) measurements were performed for each crystalline form using a VTI atmospheric microbalance, SGA-100 system (VTI Corp., Hialeah, Fla. 33016). A weighed sample was used and the humidity was set at the ambient value at the start of the analysis. The DMS analysis consisted of a scan rate of 5% RH/step over the full humidity range of 5% RH to 90% RH. The DMS run was performed isothermally at 25° C.

[2] = Differential scanning calorimetry (thermal stability); format: physicochemical; conditions: heating ramp 10° C./min
Method: Differential scanning calorimetry (DSC) experiments were performed using a TA Instruments Model Q-100 module with a Thermal Analyst controller. Data were collected and analyzed using TA Instruments Universal Analysis software. A sample of each crystalline form was accurately weighed into a covered aluminum pan. After a 5 minute isothermal equilibration period at 5° C., the sample was heated using a linear heating ramp of 10° C./min from 0° C. to 200° C.

[3] = Thermal stability on storage, purity by HPLC; format: physicochemical; conditions: 40° C. (open container), 75% relative humidity, one month; for Purity Change: HPLC area percentage (% AUC)
Method: Weighed samples of the crystalline materials were stored at 40° C. (open container) and 75% relative humidity, for one month. The samples were then analyzed by the following HPLC method:
Column: Agilent Zorbox SB-C18, 4.6×250 mm, 5 μm (Part No. 880975-902). Mobile Phase A: 80% H2O, 20% MeCN, 0.01% TFA. Mobile Phase B: 80% MeCN, 20% H2O, 0.01% TFA. Flow rate: 1 mL/min. Injection Volume: 20 μL. Detector: 250 nm.
The purity of the samples was determined by HPLC area percentage (% AUC).

[4] = Reslurrying of hemiedisylate salt form I and form II; format: physicochemical; conditions: EtOH/MTBE with or without water, room temperature
Method: (§1) Hemiedisylate salt form II (50 mg, 80 μmol) and hemiedisylate salt form I (50 mg, 80 μmol) were combined with a premixed solution of EtOH (420 μL) and MTBE (1.6 mL, 13 mmol). The mixture was capped and stirred at room temperature. The resulting solids were filtered and washed with dioxane to yield a solid (86 mg), which was determined to be hemiedisylate salt form II.
as §1, with “mmol). Water (20 μL) was added and the” for “mmol). The”, “solid (67” for “solid (86”

[5] = Solubility in buffers over 24 hours; format: physicochemical; conditions: pH>3, room temperature, FIG. 16
Method: Samples of the crystalline materials were evaluated over a 24 hour period at several pH ranges. The following buffer systems were used: • HCl buffer pH @ 1.15 • HCl buffer pH @ 1.94 • Potassium biphthate buffer pH @ 2.97 • Acetate buffer pH @ 4.17 • Acetate buffer pH @ 5.16 • Phosphate buffer pH @ 6.04 • Phosphate buffer pH @ 7.0
Samples (7-8 mg) of the crystalline materials were combined with 2 mL of each of the buffers in a 5 mL glass vial. The vials were then mounted onto an automatic rotator and rotate for 24 hours at room temperature. The resulting suspensions were filtered using a 0.45 μm filter (PVDF membrane) into a clean vial for HPLC analysis.

[6] = biological target: T1, AT1 receptor (Homo sapiens, UniProt P30556); assay: AT1 receptor binding (inhibitory constant)
T1 sequence (P30556 1-359): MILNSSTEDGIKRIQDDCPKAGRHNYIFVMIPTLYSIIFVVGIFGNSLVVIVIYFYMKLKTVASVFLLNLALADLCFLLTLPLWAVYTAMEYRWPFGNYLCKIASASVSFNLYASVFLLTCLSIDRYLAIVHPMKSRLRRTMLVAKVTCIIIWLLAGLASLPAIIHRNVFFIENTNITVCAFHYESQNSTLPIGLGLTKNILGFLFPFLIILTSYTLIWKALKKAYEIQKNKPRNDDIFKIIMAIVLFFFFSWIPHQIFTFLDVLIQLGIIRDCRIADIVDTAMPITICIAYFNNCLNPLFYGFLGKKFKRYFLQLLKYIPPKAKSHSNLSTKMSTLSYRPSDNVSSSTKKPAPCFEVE

| SMILES | temperature below which no significant thermal decomposition is seen (DSC) [2] [°C] | weight gain, humidity range 5% RH up to 90% RH ([1]; 5% RH to 90% RH) | weight gain when exposed to up to 70% RH [1] | Purity Change [3] [%] | solubility compared with the freebase [5] | Ki [6] [µM] | DMS moisture sorption/desorption behaviour ([1]; 5% RH to 90% RH) | thermal stability on storage [3] | relative stability of crystalline forms on reslurrying [4] |
| --- | --- | --- | --- | --- | --- | --- | --- | --- | --- |
| CCOc1nc(CC)c(CNC(=O)[C@@H](S)CC(C)C)n1Cc1ccc(-c2ccccc2C(=O)O)cc1F [mono-oxalate salt, Crystalline Mono-oxalate Salt of 4′-{2-Ethoxy-4-ethyl-5-[((S)-2-mercapto-4-methylpentanoylamino)methyl]imidazol-1-ylmethyl}-3′-fluorobiphenyl-2-carboxylic Acid] | ≥ 140 | – | – | – | – | – | picks up moisture gradually from 5% RH to 90% RH, and loses the moisture during drying segment | – | – |
| CCOc1nc(CC)c(CNC(=O)[C@@H](S)CC(C)C)n1Cc1ccc(-c2ccccc2C(=O)O)cc1F [hemiedisylate salt form I, Crystalline Hemiedisylate Salt Form I of 4′-{2-Ethoxy-4-ethyl-5-[((S)-2-mercapto-4-methylpentanoylamino)methyl]imidazol-1-ylmethyl}-3′-fluorobiphenyl-2-carboxylic Acid] | ≥ 158 | about 0.38% | less than 0.26% | – | – | – | – | – | – |
| CCOc1nc(CC)c(CNC(=O)[C@@H](S)CC(C)C)n1Cc1ccc(-c2ccccc2C(=O)O)cc1F [freebase form, 4′-{2-ethoxy-4-ethyl-5-[((S)-2-mercapto-4-methylpentanoylamino)methyl]imidazol-1-ylmethyl}-3′-fluorobiphenyl-2-carboxylic acid, reference compound] | – | – | – | −2.9 | – | – | – | – | – |

Further lines, with some results ahead:

| temperature below which no significant thermal decomposition is seen (DSC) [2] [°C] | weight gain, humidity range 5% RH up to 90% RH ([1]; 5% RH to 90% RH) | weight gain when exposed to up to 70% RH [1] | Purity Change [3] [%] | solubility compared with the freebase [5] | Ki [6] [µM] | SMILES | DMS moisture sorption/desorption behaviour ([1]; 5% RH to 90% RH) | thermal stability on storage [3] | relative stability of crystalline forms on reslurrying [4] |
| --- | --- | --- | --- | --- | --- | --- | --- | --- | --- |
| ≥ 182 | about 0.16% | less than 0.10% | −0.3 | more soluble than the freebase | – | CCOc1nc(CC)c(CNC(=O)[C@@H](S)CC(C)C)n1Cc1ccc(-c2ccccc2C(=O)O)cc1F [hemiedisylate form II, Crystalline Hemiedisylate Salt Form II of 4′-{2-Ethoxy-4-ethyl-5-[((S)-2-mercapto-4-methylpentanoylamino)methyl]imidazol-1-ylmethyl}-3′-fluorobiphenyl-2-carboxylic Acid] | – | more stable than the previously known freebase form | more stable than crystalline hemiedisylate salt form I |
| – | – | – | – | – | ≤ 0.1 | CCOc1nc(CC)c(CNC(=O)[C@@H](S)CC(C)C)n1Cc1ccc(-c2ccccc2C(=O)O)cc1F [compound of formula I, 4′-{2-ethoxy-4-ethyl-5-[((S)-2-mercapto-4-methylpentanoylamino)methyl]imidazol-1-ylmethyl}-3′-fluorobiphenyl-2-carboxylic acid] | – | – | – |
| ≥ 181 | about 0.97% | less than 0.68% | −0.1 | more soluble than the freebase | – | CCOc1nc(CC)c(CNC(=O)[C@@H](S)CC(C)C)n1Cc1ccc(-c2ccccc2C(=O)O)cc1F [heminapadisylate form, Crystalline Heminapadisylate Salt of 4′-{2-Ethoxy-4-ethyl-5-[((S)-2-mercapto-4-methylpentanoylamino)methyl]imidazol-1-ylmethyl}-3′-fluorobiphenyl-2-carboxylic Acid] | – | more stable than the previously known freebase form | – |
